Like-named read-outs stand apart in the source and are kept apart here.
Legend:
AKT1 WT = target: T1, AKT1 WT (Homo sapiens, UniProt P31749); assay: Live cell AKT1 WT target engagement by NanoBRET competitive probe displacement in HEK293 cells; assay type: binding; conditions: 2 h at 37° C., read-out: AKT1 WT IC50
T1 construct: expressed in transfected cells; host or cells: HEK293
Description: (§1) Determining live cell AKT1 E17K, AKT1 WT, and AKT2 target engagement by NanoBRET competitive probe displacement. […] Briefly, HEK293 cells were transfected with plasmids encoding kinase-NanoLuciferase fusion proteins overnight. Cells were then treated with serial dilutions of compound and an ˜EC50 concentration of fluorescently-tagged ATP-competitive tracer (Promega). After incubation for 2 h at 37° C., luciferase substrate and extracellular luciferase inhibitor were added to all wells, and luminescent intensity at 460 nm and 600 nm were measured on a multimode plate-reader. The ratio of E600/E460 was calculated to give the tracer engagement signal (BRET). IC50 values were calculated by fitting BRET values to a log(inhibitor) vs. response Hill equation.

AKT2 = target: T2, AKT2 (Homo sapiens, UniProt P31751); assay: Live cell AKT2 target engagement by NanoBRET competitive probe displacement in HEK293 cells; assay type: binding; conditions: 2 h at 37° C., read-out: AKT2 IC50
T2 construct: expressed in transfected cells; host or cells: HEK293
Description: as §1

[1] = NanoBRET live cell target engagement, HEK293 cells
[2] = NanoBRET competitive probe displacement, live HEK293 cells

T1 sequence (P31749 whole entry): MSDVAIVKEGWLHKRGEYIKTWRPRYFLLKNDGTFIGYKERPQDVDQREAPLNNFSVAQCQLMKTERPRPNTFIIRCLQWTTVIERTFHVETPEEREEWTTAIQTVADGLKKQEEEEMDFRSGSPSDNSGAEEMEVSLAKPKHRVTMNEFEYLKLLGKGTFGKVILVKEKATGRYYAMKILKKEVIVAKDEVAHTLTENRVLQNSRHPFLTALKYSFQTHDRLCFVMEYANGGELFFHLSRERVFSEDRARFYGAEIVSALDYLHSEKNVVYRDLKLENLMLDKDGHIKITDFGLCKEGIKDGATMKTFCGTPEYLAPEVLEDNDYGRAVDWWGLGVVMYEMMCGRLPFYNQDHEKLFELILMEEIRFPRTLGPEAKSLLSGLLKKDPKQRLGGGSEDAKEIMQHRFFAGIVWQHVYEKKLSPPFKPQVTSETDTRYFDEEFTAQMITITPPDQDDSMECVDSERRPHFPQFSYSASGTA
T2 sequence (P31751 whole entry): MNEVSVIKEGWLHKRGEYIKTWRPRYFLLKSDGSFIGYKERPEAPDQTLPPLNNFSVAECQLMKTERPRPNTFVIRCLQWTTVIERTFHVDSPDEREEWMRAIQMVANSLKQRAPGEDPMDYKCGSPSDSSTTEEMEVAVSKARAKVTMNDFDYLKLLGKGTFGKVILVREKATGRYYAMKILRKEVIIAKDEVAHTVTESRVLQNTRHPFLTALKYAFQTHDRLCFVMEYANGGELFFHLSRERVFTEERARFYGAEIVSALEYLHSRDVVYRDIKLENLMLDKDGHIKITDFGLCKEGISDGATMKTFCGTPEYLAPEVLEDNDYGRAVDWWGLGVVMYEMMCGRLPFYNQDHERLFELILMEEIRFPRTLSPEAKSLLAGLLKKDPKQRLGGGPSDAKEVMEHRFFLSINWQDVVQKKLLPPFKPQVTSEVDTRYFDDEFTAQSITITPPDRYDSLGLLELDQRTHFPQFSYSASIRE

IC50 (AKT1 WT; [1]) [nM]	IC50 (AKT2; [1]) [nM]	IC50 (AKT1 WT; [2]) [nM]	IC50 (AKT2; [2]) [nM]	SMILES
58.4	1390	–	–	COc1cc(C(=O)N[C@H]2CCc3cc(-n4c(-c5cccnc5N)nc5ccc(-n6cccn6)nc54)ccc32)nn1C [Compound 216]
10.8	8.38	–	–	CC(=O)Nc1ccc(C(=O)N[C@H]2CCc3cc(-n4c(-c5cccnc5N)nc5ccc(-n6cccn6)nc54)ccc32)cc1F [Compound 309]
18.6	94.7	–	–	Cc1ncc(C(=O)N[C@H]2CCc3cc(-n4c(-c5cccnc5N)nc5ccc(-n6cccn6)nc54)ccc32)c(C)n1 [Compound 96]
5.59	81.3	–	–	Nc1ncccc1-c1nc2ccc(-n3cccn3)nc2n1-c1ccc2c(c1)CC[C@@H]2NC(=O)c1ccnc(F)c1 [Compound 295]
3.21	9.39	–	–	Cc1nccnc1C(=O)N[C@H]1CCc2cc(-n3c(-c4cccnc4N)nc4ccc(-c5cccc(N6CCN(C)CC6)c5)nc43)ccc21 [Compound 269]
46.8	427	–	–	CCc1ncccc1C(=O)N[C@H]1CCc2cc(-n3c(-c4cccnc4N)nc4ccc(-n5cccn5)nc43)ccc21 [Compound 86]
32.1	342	–	–	Nc1ncccc1-c1nc2ccc(-n3cccn3)nc2n1-c1ccc2c(c1)CC[C@@H]2NC(=O)c1cnc2c(c1)CC(=O)N2 [Compound 224]
21	537	–	–	C#Cc1ncccc1C(=O)N[C@H]1CCc2cc(-n3c(-c4cccnc4N)nc4ccc(-n5cccn5)nc43)ccc21 [Compound 113]
43.8	886	–	–	Nc1ncccc1-c1nc2ccc(-n3cccn3)nc2n1-c1ccc2c(c1)CC[C@@H]2NCc1ccncc1 [Compound 142]
151	2520	–	–	Cc1cnc(C(=O)N[C@H]2CCc3cc(-n4c(-c5cccnc5N)nc5ccc(-n6cccn6)nc54)ccc32)c(C)n1 [Compound 207]
–	–	12.9	689	Cn1ccc(N2CCC(N[C@H]3CCc4cc(-n5c(-c6cccnc6N)nc6ccc(-n7ccc(N8CCC8)n7)nc65)ccc43)CC2)n1 [Compound 596]
13.5	46.6	–	–	CC(=O)Nc1ccc(C(=O)N[C@H]2CCc3cc(-n4c(-c5cccnc5N)nc5ccc(-n6cccn6)nc54)ccc32)cn1 [Compound 232]
131	1730	–	–	Nc1ncccc1-c1nc2ccc(-n3cccn3)nc2n1-c1ccc2c(c1)CC[C@@H]2NC(=O)c1ccnc2c1OC(F)(F)O2 [Compound 317]
95.8	596	–	–	Nc1ncccc1-c1nc2ccc(-n3cccn3)nc2n1-c1ccc2c(c1)CC[C@@H]2NC(=O)c1cccnc1C#Cc1ccccc1 [Compound 210]
–	–	13.9	278	Nc1ncccc1-c1nc2ccc(-n3cccn3)nc2n1-c1ccc2c(c1)CC(F)[C@@H]2NC1CCc2cnccc21 (stereo partly drawn) [Compound 481]
42.5	785	–	–	Nc1ncccc1-c1nc2ccc(-n3cccn3)nc2n1-c1ccc2c(c1)CC[C@@H]2NCc1ccccn1 [Compound 131]
5.19	73.8	–	–	CNC(=O)c1ccc(C(=O)N[C@H]2CCc3cc(-n4c(-c5cccnc5N)nc5ccc(-n6cccn6)nc54)ccc32)cc1 [Compound 256]
–	–	33.6	6180	Nc1ncccc1-c1nc2ccc(C#CC3CCCC3)nc2n1-c1ccc2c(c1)CC[C@@H]2NC(=O)c1ccc(C(F)F)nc1 [Compound 460]
38.9	328	–	–	Cc1nncn1[C@H]1CCc2cc(-n3c(-c4cccnc4N)nc4ccc(-n5cccn5)nc43)ccc21 [Compound 217, (S)-3-(3-(1-(3-methyl-4H-1,2,4-triazol-4-yl)-2,3-dihydro-1H-inden-5-yl)-5-(1H-pyrazol-1-yl)-3H-imidazo[4,5-b]pyridin-2-yl)pyridin-2-amine]
31.5	836	–	–	Cc1cc(C(=O)N[C@H]2CCc3cc(-n4c(-c5cccnc5N)nc5ccc(-n6nccn6)nc54)ccc32)cnc1C(F)F [Compound 102]
391	2850	–	–	Cc1ccc(C(=O)N[C@H]2CCc3cc(-n4c(-c5cccnc5N)nc5ccc(C#Cc6ncco6)nc54)ccc32)cn1 [Compound 341]

Reference: patent publication US12624034B2, “Non-covalent modifiers of AKT1 and uses thereof” (Terremoto Biosciences, Inc., priority 2023, dated 2026)
